Measured values from PubChem BioAssay (NCI).
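These data come from cells grown in 96-well plates and exposed to compound for 48 hours at five concentrations. Definition used: TGI = concentration required for complete inhibition of growth.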

How the values were obtained:
Assay in all cases: NCI tumour cell line growth inhibition, 48 h
SN12C renal = system: SN12C renal
SF-539 CNS = system: SF-539 CNS
UO-31 renal = system: UO-31 renal
A498 renal = system: A498 renal
NCI-H522 lung = system: NCI-H522 lung
HT29 colon = system: HT29 colon
OVCAR-4 ovarian = system: OVCAR-4 ovarian
NCI-H226 lung = system: NCI-H226 lung
SNB-75 CNS = system: SNB-75 CNS
SNB-19 CNS = system: SNB-19 CNS
A549 NSCLC = system: A549 NSCLC
NCI-H460 lung = system: NCI-H460 lung
HCT-116 colon = system: HCT-116 colon
COLO 205 colon = system: COLO 205 colon
UACC-257 melanoma = system: UACC-257 melanoma
MOLT-4 leukemia = system: MOLT-4 leukemia
HCT-15 colon = system: HCT-15 colon
U251 CNS = system: U251 CNS
SW-620 colon = system: SW-620 colon
SF-268 CNS = system: SF-268 CNS
HOP-18 NSCLC = system: HOP-18 NSCLC
NCI/ADR-RES ovarian = system: NCI/ADR-RES ovarian
KM20L2 colon = system: KM20L2 colon
SNB-78 CNS = system: SNB-78 CNS
UACC-62 melanoma = system: UACC-62 melanoma
M19-MEL melanoma = system: M19-MEL melanoma
SK-MEL-28 melanoma = system: SK-MEL-28 melanoma
SK-MEL-2 melanoma = system: SK-MEL-2 melanoma
SK-MEL-5 melanoma = system: SK-MEL-5 melanoma
OVCAR-3 ovarian = system: OVCAR-3 ovarian
DMS 273 small cell lung = system: DMS 273 small cell lung
HL-60(TB) leukemia = system: HL-60(TB) leukemia
P388/ADR leukemia = system: P388/ADR leukemia
P388 leukemia = system: P388 leukemia
KM12 colon = system: KM12 colon
HOP-92 NSCLC = system: HOP-92 NSCLC
CAKI-1 renal = system: CAKI-1 renal
HCC-2998 colon = system: HCC-2998 colon
K-562 leukemia = system: K-562 leukemia
NCI-H23 lung = system: NCI-H23 lung
EKVX NSCLC = system: EKVX NSCLC
RXF 393 renal = system: RXF 393 renal
OVCAR-5 ovarian = system: OVCAR-5 ovarian
MALME-3M melanoma = system: MALME-3M melanoma
DLD-1 colon = system: DLD-1 colon
CCRF-CEM leukemia = system: CCRF-CEM leukemia
RPMI-8226 leukemia = system: RPMI-8226 leukemia
MCF7 breast = system: MCF7 breast
OVCAR-8 ovarian = system: OVCAR-8 ovarian
SF-295 CNS = system: SF-295 CNS
DMS 114 small cell lung = system: DMS 114 small cell lung
HOP-62 NSCLC = system: HOP-62 NSCLC
SK-OV-3 ovarian = system: SK-OV-3 ovarian
IGROV1 ovarian = system: IGROV1 ovarian
LOX IMVI melanoma = system: LOX IMVI melanoma
SN12K1 renal = system: SN12K1 renal
786-0 renal = system: 786-0 renal
M14 melanoma = system: M14 melanoma
ACHN renal = system: ACHN renal
SR leukemia = system: SR leukemia
RXF-631 renal = system: RXF-631 renal
TK-10 renal = system: TK-10 renal
LXFL 529 NSCLC = system: LXFL 529 NSCLC

NCCCC(N)(C(=O)O)C(F)F (centres undefined)
TGI (SN12C renal): > 5000 µM
TGI (SF-539 CNS): > 5000 µM
TGI (UO-31 renal): > 5000 µM
TGI (A498 renal): > 5000 µM
TGI (NCI-H522 lung): > 5000 µM
TGI (HT29 colon): > 5000 µM
TGI (OVCAR-4 ovarian): > 5000 µM
TGI (NCI-H226 lung): > 5000 µM
TGI (SNB-75 CNS): > 5000 µM
TGI (SNB-19 CNS): > 5000 µM
TGI (A549 NSCLC): > 5000 µM
TGI (NCI-H460 lung): > 5000 µM
TGI (HCT-116 colon): > 5000 µM
TGI (COLO 205 colon): > 5000 µM
TGI (UACC-257 melanoma): > 5000 µM
TGI (MOLT-4 leukemia): > 5000 µM
TGI (HCT-15 colon): > 5000 µM
TGI (U251 CNS): > 5000 µM
TGI (SW-620 colon): > 5000 µM
TGI (SF-268 CNS): > 5000 µM
TGI (HOP-18 NSCLC): > 50 µM
TGI (NCI/ADR-RES ovarian): > 5000 µM
TGI (KM20L2 colon): > 5000 µM
TGI (SNB-78 CNS): > 5000 µM
TGI (UACC-62 melanoma): > 5000 µM
TGI (M19-MEL melanoma): > 5000 µM
TGI (SK-MEL-28 melanoma): > 5000 µM
TGI (SK-MEL-2 melanoma): > 5000 µM
TGI (SK-MEL-5 melanoma): > 5000 µM
TGI (OVCAR-3 ovarian): > 5000 µM
TGI (DMS 273 small cell lung): > 5000 µM
TGI (HL-60(TB) leukemia): > 5000 µM
TGI (P388/ADR leukemia): > 5000 µM
TGI (P388 leukemia): > 5000 µM
TGI (KM12 colon): > 5000 µM
TGI (HOP-92 NSCLC): > 5000 µM
TGI (CAKI-1 renal): > 5000 µM
TGI (HCC-2998 colon): > 5000 µM
TGI (K-562 leukemia): > 5000 µM
TGI (NCI-H23 lung): > 5000 µM
TGI (EKVX NSCLC): > 1260 µM
TGI (RXF 393 renal): > 5000 µM
TGI (OVCAR-5 ovarian): > 4800 µM
TGI (MALME-3M melanoma): > 5000 µM
TGI (DLD-1 colon): > 5000 µM
TGI (CCRF-CEM leukemia): > 1580 µM
TGI (RPMI-8226 leukemia): > 5000 µM
TGI (MCF7 breast): > 5000 µM
TGI (OVCAR-8 ovarian): > 1090 µM
TGI (SF-295 CNS): > 5000 µM
TGI (DMS 114 small cell lung): > 5000 µM
TGI (HOP-62 NSCLC): > 5000 µM
TGI (SK-OV-3 ovarian): > 5000 µM
TGI (IGROV1 ovarian): > 5000 µM
TGI (LOX IMVI melanoma): > 5000 µM
TGI (SN12K1 renal): > 1580 µM

CCCCCCCC(=O)OC(COC(=O)Cc1ccccc1)COC(=O)C(C)(C)C (centres undefined)
TGI (SN12C renal): > 100 µM
TGI (UO-31 renal): > 100 µM
TGI (A498 renal): > 100 µM
TGI (OVCAR-4 ovarian): > 100 µM
TGI (NCI-H226 lung): > 100 µM
TGI (SNB-19 CNS): > 100 µM
TGI (786-0 renal): > 100 µM
TGI (A549 NSCLC): > 100 µM
TGI (NCI-H460 lung): > 100 µM
TGI (HCT-116 colon): > 100 µM
TGI (COLO 205 colon): > 100 µM
TGI (MOLT-4 leukemia): > 100 µM
TGI (HCT-15 colon): > 100 µM
TGI (U251 CNS): > 100 µM
TGI (SW-620 colon): > 100 µM
TGI (SF-268 CNS): > 100 µM
TGI (HOP-18 NSCLC): > 100 µM
TGI (KM20L2 colon): > 100 µM
TGI (UACC-62 melanoma): > 100 µM
TGI (M19-MEL melanoma): > 100 µM
TGI (SK-MEL-28 melanoma): > 100 µM
TGI (M14 melanoma): > 100 µM
TGI (ACHN renal): > 100 µM
TGI (SK-MEL-5 melanoma): > 100 µM
TGI (OVCAR-3 ovarian): > 100 µM
TGI (DMS 273 small cell lung): > 100 µM
TGI (HL-60(TB) leukemia): > 100 µM
TGI (SR leukemia): > 100 µM
TGI (HOP-92 NSCLC): > 100 µM
TGI (CAKI-1 renal): > 100 µM
TGI (HCC-2998 colon): > 100 µM
TGI (RXF-631 renal): > 100 µM
TGI (K-562 leukemia): > 100 µM
TGI (NCI-H23 lung): > 100 µM
TGI (OVCAR-5 ovarian): > 100 µM
TGI (MALME-3M melanoma): > 100 µM
TGI (DLD-1 colon): > 100 µM
TGI (CCRF-CEM leukemia): > 100 µM
TGI (RPMI-8226 leukemia): > 100 µM
TGI (OVCAR-8 ovarian): > 100 µM
TGI (TK-10 renal): > 100 µM
TGI (SF-295 CNS): > 100 µM
TGI (LXFL 529 NSCLC): > 100 µM
TGI (DMS 114 small cell lung): > 100 µM
TGI (HOP-62 NSCLC): > 100 µM
TGI (SK-OV-3 ovarian): > 100 µM
TGI (IGROV1 ovarian): > 100 µM
TGI (LOX IMVI melanoma): > 100 µM
